What is called IC50 is the concentration that gives 50% inhibition.

The first assay addresses T1, RORγ-LBD (Homo sapiens, UniProt P51449).
T1 construct: HIS-tagged RORγ-LBD was recombinantly expressed in SF9 cells; made in house; host or cells: SF9 cells (baculovirus); unpurified lysate
T1 sequence (P51449 269-508 limits assumed): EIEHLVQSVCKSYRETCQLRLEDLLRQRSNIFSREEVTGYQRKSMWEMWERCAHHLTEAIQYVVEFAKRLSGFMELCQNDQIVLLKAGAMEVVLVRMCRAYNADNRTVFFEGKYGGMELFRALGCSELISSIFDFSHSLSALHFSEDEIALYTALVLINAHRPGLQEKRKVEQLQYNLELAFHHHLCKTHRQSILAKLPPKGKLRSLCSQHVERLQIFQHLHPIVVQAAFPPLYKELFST
Kind of assay: RORγ-Ligand Binding Domain TR-FRET Assay. In kind it is biochemical. The conditions noted are these: Table 8, indazoles. The protocol: HIS-tagged RORγ-LBD was recombinantly expressed in SF9 cells using a baculovirus expression system. The protein was not purified. Cells were lysed and the lysate was used as a source for RORγ-LBD for the assay. A 1:80 dilution of RORγ-LBD lysate in assay buffer (25 mM HEPES pH 7.0, 100 mM NaCl, 0.01% Tween, 0.1% BSA) was prepared and 5 μL was added to each well (RORγ-LBD final concentration ˜10 nM). Control wells received lysate from SF9 cells not expressing RORγ-LBD.
Compounds to be tested were diluted to 100× final test concentration in DMSO and further diluted to 4× final test concentration using assay buffer to provide the test compound mixture. An aliquot (5 μL) of the test compound mixture was added to each well.
A 4× stock of biotinylated-LXXLL peptide from SRC1-2 (Biotin-[…]) was prepared in assay buffer and a 5 μL aliquot added to each well (450 nM final concentration). A 4× solution of europium tagged anti-HIS antibody (2 nM final concentration) and APC conjugated streptavidin (60 nM final concentration) were prepared and a 5 μL aliquot added to each well.
The final assay mixture was incubated for 4 hours to overnight, and the fluorescence signal was measured on an Envision plate reader: (Excitation filter=340 nm; APC emission=665 nm; Europium emission=615 nm; dichroic mirror=D400/D630; delay time=100 μs, integration time=200 μs).
IC50 values for test compounds were calculated from the quotient of the fluorescence signal at 665 nm divided by the fluorescence signal at 615 nm using GraphPad Prism software.
(In TR-FRET formats the signal depends on donor and acceptor labels being close together.)
For the molecule `Cc1nn(C(F)F)cc1S(=O)(=O)n1ncc2ccc(NC(=O)c3c(Cl)cccc3C(F)(F)F)cc21` [Compound V-21], the IC50 is < 15 µM.
Still for that read-out and setting: the same measure for `COc1ccc(Br)cc1S(=O)(=O)n1ncc2ccc(NC(=O)c3c(F)cccc3Cl)cc21` [Compound V-83]: < 15 µM.
The same measure, in the same setting: with `O=C(Nc1ccc2cnn(S(=O)(=O)c3ccccc3F)c2c1)c1c(F)cccc1Cl` [Compound V-143] the figure was < 15 µM; with `O=C(Nc1ccc2c(CO)nn(S(=O)(=O)c3cccc(C(F)(F)F)c3)c2c1)c1c(F)cccc1Cl` [Compound 11, 2-Chloro-6-fluoro-N-[3-hydroxymethyl-1-(3-trifluoromethylbenzene-sulfonyl)-1H-indazol-6-yl]benzamide], < 15 µM.
Consider `CC(=O)c1cccc(S(=O)(=O)n2ncc3ccc(NC(=O)Cc4ccc(F)c(F)c4)cc32)c1` [Compound V-19], for which the half-inhibitory concentration (IC50) was < 15 µM.
On the same count and under the same terms, with `COC(=O)c1cc(C)c(S(=O)(=O)n2ncc3ccc(NC(=O)c4c(F)cccc4Cl)cc32)s1` [Compound V-152] the figure was < 15 µM.
The same measure, in the same setting: the same measure for `CCCc1ccc(S(=O)(=O)n2ncc3ccc(NC(=O)c4c(F)cccc4Cl)cc32)cc1` [Compound V-115]: < 15 µM.
As for `O=C(Nc1ccc2cnn(S(=O)(=O)c3cccc(C(F)(F)F)c3)c2c1)c1c(Cl)cccc1Cl` [Compound V-75], the half-inhibitory concentration (IC50) was < 15 µM.
Take `CNC(=O)c1cccc(S(=O)(=O)n2ncc3ccc(NC(=O)c4c(F)cccc4Cl)cc32)c1` [Compound V-107]: the concentration for half-maximal inhibition (IC50) is < 15 µM.
On the same count and under the same terms, with `CC(=O)c1cccc(S(=O)(=O)n2ncc3ccc(NC(=O)c4c(Cl)cccc4C(F)(F)F)cc32)c1` [Compound V-36] the figure was < 15 µM.
On the same count and under the same terms, with `COc1ccc(C)cc1S(=O)(=O)n1ncc2ccc(NC(=O)c3c(F)cccc3Cl)cc21` [Compound V-78] the figure was < 15 µM; with `O=C(Nc1ccc2cnn(S(=O)(=O)c3c(F)cccc3F)c2c1)c1c(F)cccc1Cl` [Compound V-128], < 15 µM.
Same read-out and setting: the same measure for `CC(=O)c1cccc(S(=O)(=O)n2ncc3ccc(NC(=O)c4c(F)cccc4F)cc32)c1` [Compound V-59]: < 15 µM; for `Cc1cccc(S(=O)(=O)n2ncc3ccc(NC(=O)c4c(Cl)cccc4C(F)(F)F)cc32)c1` [Compound V-37]: < 15 µM.
On to `COC(=O)c1cc(S(=O)(=O)n2ncc3ccc(NC(=O)c4c(F)cccc4Cl)cc32)oc1C` [Compound V-150], for which the IC50 is < 15 µM.
As for `O=C(Nc1ccc2cnn(S(=O)(=O)c3cc(Cl)sc3Cl)c2c1)c1c(F)cccc1Cl` [Compound V-82], the IC50 was < 15 µM.
The same measure, in the same setting: with `O=C(Nc1ccc2cnn(S(=O)(=O)Cc3cccc(C(F)(F)F)c3)c2c1)c1c(F)cccc1Cl` [Compound V-137] the figure was < 15 µM; with `COC(=O)c1ccc(S(=O)(=O)n2ncc3ccc(NC(=O)c4c(F)cccc4Cl)cc32)cc1` [Compound V-109], < 15 µM; with `Cc1ccc(F)cc1S(=O)(=O)n1ncc2ccc(NC(=O)c3c(F)cccc3Cl)cc21` [Compound V-165], < 15 µM.
Still for that read-out and setting: the same measure for `Cn1cc(S(=O)(=O)n2ncc3ccc(NC(=O)c4c(F)cccc4Cl)cc32)cn1` [Compound V-112]: < 15 µM; for `O=C(Nc1ccc2cnn(S(=O)(=O)c3ccc(F)c(C(F)(F)F)c3)c2c1)c1c(Cl)cccc1Cl` [Compound V-66]: < 15 µM; for `O=C(Nc1ccc2cnn(S(=O)(=O)c3cccc(OC(F)F)c3)c2c1)c1c(F)cccc1C(F)(F)F` [Compound V-45]: < 15 µM.
On the same count and under the same terms, the same measure for `Cc1ccc(F)c(S(=O)(=O)n2ncc3ccc(NC(=O)c4c(F)cccc4Cl)cc32)c1` [Compound V-101]: < 15 µM; for `Cc1ccc(S(=O)(=O)n2ncc3ccc(NC(=O)c4c(F)cccc4Cl)cc32)c(C)c1` [Compound V-103]: < 15 µM.
Turning to `O=C(Nc1ccc2cnn(S(=O)(=O)c3ccc(Br)cc3)c2c1)c1c(F)cccc1Cl` [Compound V-98], the IC50 is < 15 µM.
The same measure, in the same setting: with `O=C(Nc1ccc2cnn(S(=O)(=O)c3ccc(F)c(C(F)(F)F)c3)c2c1)c1c(F)cccc1F` [Compound V-56] the figure was < 15 µM.
The same measure, in the same setting: the same measure for `O=C(Nc1ccc2cnn(S(=O)(=O)c3ccc(Cl)cc3)c2c1)c1c(F)cccc1Cl` [Compound V-156]: < 15 µM.
Regarding `O=C(Nc1ccc2cnn(S(=O)(=O)Cc3ccc(C(F)(F)F)cc3)c2c1)c1c(F)cccc1Cl` [Compound V-140], the IC50 was < 15 µM.
The same measure, in the same setting: the same measure for `Cn1cnc(S(=O)(=O)n2ncc3ccc(NC(=O)c4c(F)cccc4Cl)cc32)c1` [Compound V-147]: < 15 µM.
On the same count and under the same terms, the same measure for `Cc1c(Cl)cccc1S(=O)(=O)n1ncc2ccc(NC(=O)c3c(F)cccc3Cl)cc21` [Compound V-145]: < 15 µM; for `CC(=O)c1cccc(S(=O)(=O)n2ncc3ccc(NC(=O)c4c(Cl)cccc4Cl)cc32)c1` [Compound V-69]: < 15 µM; for `O=C(Nc1ccc2cnn(S(=O)(=O)c3cccc(C(F)(F)F)c3)c2c1)c1c(F)cccc1Cl` [Compound V-55]: < 15 µM.
Regarding `O=C(Nc1ccc2cnn(S(=O)(=O)c3ccc(F)cc3F)c2c1)c1c(F)cccc1Cl` [Compound V-168], the IC50 was < 15 µM.
On the same count and under the same terms, with `O=C(Nc1ccc2cnn(S(=O)(=O)c3cccc(C(F)(F)F)c3)c2c1)c1c(Cl)cccc1C(F)(F)F` [Compound V-42] the figure was < 15 µM.
The same measure, in the same setting: the same measure for `Cc1nn(C)c(C)c1S(=O)(=O)n1ncc2ccc(NC(=O)c3c(F)cccc3Cl)cc21` [Compound V-90]: < 15 µM; for `CC(C)(C)c1cccc(S(=O)(=O)n2ncc3ccc(NC(=O)c4c(Cl)cccc4Cl)cc32)c1` [Compound V-67]: < 15 µM.
The same measure, in the same setting: the same measure for `O=C(Nc1ccc2cnn(S(=O)(=O)c3cc(Cl)ccc3F)c2c1)c1c(F)cccc1Cl` [Compound V-169]: < 15 µM; for `CNC(=O)Nc1ccc(S(=O)(=O)n2ncc3ccc(NC(=O)c4c(F)cccc4Cl)cc32)cc1Cl` [Compound V-133]: < 15 µM; for `O=C(Nc1ccc2cnn(S(=O)(=O)Cc3cc(Cl)cc(Cl)c3)c2c1)c1c(F)cccc1Cl` [Compound V-138]: < 15 µM.
With `Cc1cccc(S(=O)(=O)n2ncc3ccc(NC(=O)c4c(F)cccc4F)cc32)c1` [Compound V-60], the IC50 is < 15 µM.
Same read-out and setting: the same measure for `COc1cccc(S(=O)(=O)n2ncc3ccc(NC(=O)Cc4ccc(F)cc4)cc32)c1` [Compound V-26]: < 15 µM; for `O=C(Nc1ccc2cnn(S(=O)(=O)c3cccc(OC(F)(F)F)c3)c2c1)c1c(F)cccc1C(F)(F)F` [Compound V-50]: < 15 µM; for `O=C(Cc1ccc(F)c(F)c1)Nc1ccc2cnn(S(=O)(=O)c3cccc(OC(F)F)c3)c2c1` [Compound V-18]: < 15 µM.
Still for that read-out and setting: the same measure for `O=C(Nc1ccc2cnn(S(=O)(=O)c3cccc(OC(F)F)c3)c2c1)c1c(Cl)cccc1C(F)(F)F` [Compound V-35]: < 15 µM; for `O=C(Nc1ccc2cnn(S(=O)(=O)Cc3ccc(C(F)(F)F)cc3)c2c1)c1c(F)cccc1C(F)(F)F` [Compound V-47]: < 15 µM; for `CN(C)C(=O)Nc1ccc(S(=O)(=O)n2ncc3ccc(NC(=O)c4c(F)cccc4Cl)cc32)cc1` [Compound V-134]: < 15 µM.

The same assay, now with this note: benzoxazines, Table 9.
Turning to `O=C(Cc1ccc(Cl)cc1)Nc1ccc2c(c1)N(S(=O)(=O)c1ccc(F)c(F)c1)C[C@@H](CO)O2` [VI-71], the half-inhibitory concentration (IC50) was < 15 µM.
The same measure, in the same setting: the same measure for `O=C(Nc1ccc2c(c1)N(S(=O)(=O)c1ccc(Cl)cc1)C[C@@H](CO)O2)c1c(F)cccc1F` [VI-55]: < 15 µM; for `N#Cc1cccc(S(=O)(=O)N2C[C@@H](CO)Oc3ccc(NC(=O)Cc4ccc(F)cc4)cc32)c1` [VI-58]: < 15 µM; for `O=C(Nc1ccc2c(c1)N(S(=O)(=O)c1ccc(F)cc1)C[C@H](CO)O2)c1c(F)cccc1Cl` [Compound 18, (R)-2-Chloro-6-fluoro-N-(4-((4-fluorophenyl)sulfonyl)-2-(hydroxymethyl)-3,4-dihydro-2H-benzo[b][1,4]oxazin-6-yl)benzamide]: > 15 µM.
Turning to `Cc1cccc(Cl)c1C(=O)Nc1ccc2c(c1)N(S(=O)(=O)c1ccc(F)cc1)C[C@H](C)O2` [VI-21], the half-inhibitory concentration (IC50) was < 15 µM.
Still for that read-out and setting: with `O=C(Cc1ccc(Cl)cc1)Nc1ccc2c(c1)N(S(=O)(=O)c1ccc(Cl)cc1)C[C@@H](CO)O2` [VI-50] the figure was < 15 µM; with `N#Cc1cccc(S(=O)(=O)N2C[C@@H](CO)Oc3ccc(NC(=O)c4c(F)cccc4F)cc32)c1` [VI-60], < 15 µM.
In the case of `C[C@@H](O)[C@H]1CN(S(=O)(=O)c2ccc(F)cc2)c2cc(NC(=O)c3c(Cl)cccc3C(F)(F)F)ccc2O1` [VI-22], the 50% inhibitory concentration (IC50) is < 15 µM.
On the same count and under the same terms, the same measure for `O=C(Nc1ccc2c(c1)N(S(=O)(=O)c1ccc(F)cc1)CC(C(F)(F)F)O2)c1c(F)cccc1Cl` (stereo not shown) [VI-117]: < 15 µM.

These data come from patent US9512111B2, “N-sulfonylated tetrahydroquinolines and related bicyclic compounds for inhibition of RORγ activity and the treatment of disease” (Lycera Corporation, priority 2010, dated 2016).
